Source: US10294202B2, “Pyrrolidinones as herbicides” (FMC Corporation, priority 2013, dated 2019)

Key:
Assay in all cases: Test D pre-/postemergence herbicide test
wheat, spring = format: in vivo, Triticum aestivum; details: for Plant response rating: Postemergence, Wheat, Spring, scale 0 to 100; for Plant response rating, Wheat, Spring: Preemergence, scale 0 to 100 (0 no effect, 100 complete control)
Description: (§1) Seeds of plant species selected from bluegrass (annual bluegrass, Poa annua), blackgrass (Alopecurus myosuroides), canarygrass (littleseed canarygrass, Phalaris minor), chickweed (common chickweed, Stellaria media), galium (catchweed bedstraw, Galium aparine), bromegrass, downy (downy bromegrass, Bromus tectorum), field poppy (Papaver rhoeas), field violet (Viola arvensis), foxtail, green (green foxtail, Setaria viridis), deadnettle (henbit deadnettle, Lamium amplexicaule), ryegrass, Italian (Italian ryegrass, Lolium multiflorum), kochia (Kochia scoparia), lambsquarters (Chenopodium album), oilseed rape (Brassica napus), pigweed (Amaranthus retroflexus), chamomile (scentless chamomile, Matricaria inodora), Russian thistle (Salsola kali), speedwell (bird's-eye speedwell, Veronica persica), barley, spring (spring barley, Hordeum vulgare), wheat, spring (spring wheat, Triticum aestivum), buckwheat, wild (wild buckwheat, Polygonum convolvulus), mustard, wild (wild mustard, Sinapis arvensis), oat, wild (wild oat, Avena fatua), radish, wild (wild radish, Raphanus raphanistrum), […]), barley, winter (winter barley, Hordeum vulgare), and wheat, winter (winter wheat, Triticum aestivum) were planted into a silt loam soil and treated preemergence with test chemicals formulated in a non-phytotoxic solvent mixture which included a surfactant. At the same time, these species were planted in pots containing Redi-Earth® planting medium (Scotts Company, 14111 Scottslawn Road, Marysville, Ohio 43041) comprising spaghnum peat moss, vermiculite, wetting agent and starter nutrients and treated with postemergence applications of the test chemicals formulated in the same manner. Plants ranged in height from 2 to 18 cm (1- to 4-leaf stage). Treated plants and controls were maintained in a controlled growth environment for 7 to 21 days after which time all species were compared to controls and visually evaluated. Plant response ratings, summarized in Table D, are based on a scale of 0 to 100 where 0 is no effect and 100 is complete control. A dash (-) response means no test result.

wheat, winter = format: in vivo, Triticum aestivum; details: for Plant response rating: Postemergence, Wheat, Winter, scale 0 to 100; for Plant response rating, Wheat, Winter: Preemergence, scale 0 to 100 (0 no effect, 100 complete control)
Description: as §1

blackgrass = format: in vivo, Alopecurus myosuroides; details: for Plant response rating: Blackgrass, scale 0 to 100; for Plant response rating, Blackgrass: scale 0 to 100 (0 no effect, 100 complete control)
Description: as §1

field poppy = format: in vivo, Papaver rhoeas; details: for Plant response rating: Field Poppy, scale 0 to 100; for Plant response rating, Field Poppy: scale 0 to 100 (0 no effect, 100 complete control)
Description: as §1

pigweed = format: in vivo, Amaranthus retroflexus; details: for Plant response rating: Postemergence, Pigweed, scale 0 to 100; for Plant response rating, Pigweed: Preemergence, scale 0 to 100 (0 no effect, 100 complete control)
Description: as §1

## O=C1NCC(c2ccc(F)c(F)c2)C1C(=O)Nc1cccc(F)c1 (racemic) [Compound 12]
wheat, spring; 16 g ai/ha
  Plant response rating: 0
  Plant response rating, Wheat, Spring: 0
wheat, spring; 31 g ai/ha
  Plant response rating: 0
  Plant response rating, Wheat, Spring: 0
wheat, spring; 62 g ai/ha
  Plant response rating: 0
  Plant response rating, Wheat, Spring: 0
wheat, spring; 125 g ai/ha
  Plant response rating: 0
  Plant response rating, Wheat, Spring: 0
wheat, spring; 250 g ai/ha
  Plant response rating: 0
  Plant response rating, Wheat, Spring: 0
wheat, winter; 16 g ai/ha
  Plant response rating: 0
  Plant response rating, Wheat, Winter: 0
wheat, winter; 31 g ai/ha
  Plant response rating: 0
  Plant response rating, Wheat, Winter: 0
wheat, winter; 62 g ai/ha
  Plant response rating: 0
  Plant response rating, Wheat, Winter: 0
wheat, winter; 125 g ai/ha
  Plant response rating: 0
  Plant response rating, Wheat, Winter: 0
wheat, winter; 250 g ai/ha
  Plant response rating: 0
  Plant response rating, Wheat, Winter: 0
blackgrass; Postemergence, 16 g ai/ha
  Plant response rating: 5
blackgrass; Postemergence, 31 g ai/ha
  Plant response rating: 10
blackgrass; Postemergence, 62 g ai/ha
  Plant response rating: 10
blackgrass; Postemergence, 125 g ai/ha
  Plant response rating: 15
blackgrass; Postemergence, 250 g ai/ha
  Plant response rating: 20
blackgrass; Preemergence, 31 g ai/ha
  Plant response rating, Blackgrass: 0
blackgrass; Preemergence, 62 g ai/ha
  Plant response rating, Blackgrass: 0
blackgrass; Preemergence, 16 g ai/ha
  Plant response rating, Blackgrass: 0
blackgrass; Preemergence, 125 g ai/ha
  Plant response rating: 0
blackgrass; Preemergence, 250 g ai/ha
  Plant response rating: 0
Field poppy; Postemergence, 16 g ai/ha
  Plant response rating: 0
Field poppy; Postemergence, 31 g ai/ha
  Plant response rating: 0
Field poppy; Postemergence, 62 g ai/ha
  Plant response rating: 50
Field poppy; Postemergence, 125 g ai/ha
  Plant response rating: 60
Field poppy; Postemergence, 250 g ai/ha
  Plant response rating: 80
Field poppy; Preemergence, 31 g ai/ha
  Plant response rating, Field Poppy: 0
Field poppy; Preemergence, 62 g ai/ha
  Plant response rating, Field Poppy: 0
Field poppy; Preemergence, 16 g ai/ha
  Plant response rating, Field Poppy: 0
Field poppy; Preemergence, 125 g ai/ha
  Plant response rating: 0
Field poppy; Preemergence, 250 g ai/ha
  Plant response rating: 0
pigweed; 16 g ai/ha
  Plant response rating: 0
  Plant response rating, Pigweed: 0
pigweed; 31 g ai/ha
  Plant response rating: 10
  Plant response rating, Pigweed: 0
pigweed; 62 g ai/ha
  Plant response rating: 25
  Plant response rating, Pigweed: 0
pigweed; 125 g ai/ha
  Plant response rating: 30
  Plant response rating, Pigweed: 0
pigweed; 250 g ai/ha
  Plant response rating: 50
  Plant response rating, Pigweed: 0

## O=C1NCC(c2cc(F)c(F)c(F)c2)C1C(=O)Nc1ccccc1F (racemic) [Compound 34]
wheat, spring; 16 g ai/ha
  Plant response rating: 0
wheat, spring; 31 g ai/ha
  Plant response rating: 0
wheat, spring; 62 g ai/ha
  Plant response rating: 0
wheat, spring; 125 g ai/ha
  Plant response rating: 0
wheat, spring; 250 g ai/ha
  Plant response rating: 0
wheat, winter; 16 g ai/ha
  Plant response rating: 0
wheat, winter; 31 g ai/ha
  Plant response rating: 0
wheat, winter; 62 g ai/ha
  Plant response rating: 0
wheat, winter; 125 g ai/ha
  Plant response rating: 0
wheat, winter; 250 g ai/ha
  Plant response rating: 0
blackgrass; Postemergence, 16 g ai/ha
  Plant response rating: 0
blackgrass; Postemergence, 31 g ai/ha
  Plant response rating: 0
blackgrass; Postemergence, 62 g ai/ha
  Plant response rating: 0
blackgrass; Postemergence, 125 g ai/ha
  Plant response rating: 0
blackgrass; Postemergence, 250 g ai/ha
  Plant response rating: 0
Field poppy; Postemergence, 16 g ai/ha
  Plant response rating: 0
Field poppy; Postemergence, 31 g ai/ha
  Plant response rating: 0
Field poppy; Postemergence, 62 g ai/ha
  Plant response rating: 0
Field poppy; Postemergence, 125 g ai/ha
  Plant response rating: 0
Field poppy; Postemergence, 250 g ai/ha
  Plant response rating: 20
pigweed; 16 g ai/ha
  Plant response rating: 0
pigweed; 31 g ai/ha
  Plant response rating: 0
pigweed; 62 g ai/ha
  Plant response rating: 0
pigweed; 125 g ai/ha
  Plant response rating: 0
pigweed; 250 g ai/ha
  Plant response rating: 10

## O=C1NCC(c2cccc(C(F)(F)F)c2)C1C(=O)Nc1cccc(F)c1F (centres unmarked) [Compound 241]
wheat, spring; 31 g ai/ha
  Plant response rating, Wheat, Spring: 0
wheat, spring; 62 g ai/ha
  Plant response rating, Wheat, Spring: 0
wheat, spring; 125 g ai/ha
  Plant response rating, Wheat, Spring: 25
wheat, spring; 250 g ai/ha
  Plant response rating, Wheat, Spring: 40
wheat, winter; 31 g ai/ha
  Plant response rating, Wheat, Winter: 0
wheat, winter; 62 g ai/ha
  Plant response rating, Wheat, Winter: 5
wheat, winter; 125 g ai/ha
  Plant response rating, Wheat, Winter: 10
wheat, winter; 250 g ai/ha
  Plant response rating, Wheat, Winter: 25
blackgrass; Preemergence, 31 g ai/ha
  Plant response rating, Blackgrass: 20
blackgrass; Preemergence, 62 g ai/ha
  Plant response rating, Blackgrass: 55
blackgrass; Preemergence, 125 g ai/ha
  Plant response rating, Blackgrass: 50
blackgrass; Preemergence, 250 g ai/ha
  Plant response rating: 75
Field poppy; Preemergence, 31 g ai/ha
  Plant response rating, Field Poppy: 90
Field poppy; Preemergence, 62 g ai/ha
  Plant response rating, Field Poppy: 95
Field poppy; Preemergence, 125 g ai/ha
  Plant response rating, Field Poppy: 95
Field poppy; Preemergence, 250 g ai/ha
  Plant response rating: 100
pigweed; 31 g ai/ha
  Plant response rating, Pigweed: 15
pigweed; 62 g ai/ha
  Plant response rating, Pigweed: 15
pigweed; 125 g ai/ha
  Plant response rating, Pigweed: 85
pigweed; 250 g ai/ha
  Plant response rating, Pigweed: 80

## O=C1NCC(c2cc(F)c(F)c(F)c2)C1C(=O)Nc1ccccc1C(F)(F)F (racemic) [Compound 33]
wheat, spring; 16 g ai/ha
  Plant response rating: 0
wheat, spring; 31 g ai/ha
  Plant response rating: 0
wheat, spring; 62 g ai/ha
  Plant response rating: 0
wheat, spring; 125 g ai/ha
  Plant response rating: 0
wheat, spring; 250 g ai/ha
  Plant response rating: 0
wheat, winter; 16 g ai/ha
  Plant response rating: 0
wheat, winter; 31 g ai/ha
  Plant response rating: 0
wheat, winter; 62 g ai/ha
  Plant response rating: 0
wheat, winter; 125 g ai/ha
  Plant response rating: 0
wheat, winter; 250 g ai/ha
  Plant response rating: 0
blackgrass; Postemergence, 16 g ai/ha
  Plant response rating: 0
blackgrass; Postemergence, 31 g ai/ha
  Plant response rating: 0
blackgrass; Postemergence, 62 g ai/ha
  Plant response rating: 0
blackgrass; Postemergence, 125 g ai/ha
  Plant response rating: 0
blackgrass; Postemergence, 250 g ai/ha
  Plant response rating: 0
Field poppy; Postemergence, 16 g ai/ha
  Plant response rating: 0
Field poppy; Postemergence, 31 g ai/ha
  Plant response rating: 0
Field poppy; Postemergence, 62 g ai/ha
  Plant response rating: 0
Field poppy; Postemergence, 125 g ai/ha
  Plant response rating: 0
Field poppy; Postemergence, 250 g ai/ha
  Plant response rating: 0
pigweed; 16 g ai/ha
  Plant response rating: 0
pigweed; 31 g ai/ha
  Plant response rating: 0
pigweed; 62 g ai/ha
  Plant response rating: 0
pigweed; 125 g ai/ha
  Plant response rating: 10
pigweed; 250 g ai/ha
  Plant response rating: 10

## O=C1NCC(c2cccc(C(F)(F)F)c2)C1C(=O)Nc1ccc(F)cc1F (racemic) [Compound 207]
wheat, spring; 31 g ai/ha
  Plant response rating, Wheat, Spring: 5
wheat, spring; 62 g ai/ha
  Plant response rating, Wheat, Spring: 10
wheat, spring; 125 g ai/ha
  Plant response rating, Wheat, Spring: 10
wheat, spring; 250 g ai/ha
  Plant response rating, Wheat, Spring: 10
wheat, winter; 31 g ai/ha
  Plant response rating, Wheat, Winter: 0
wheat, winter; 62 g ai/ha
  Plant response rating, Wheat, Winter: 15
wheat, winter; 125 g ai/ha
  Plant response rating, Wheat, Winter: 10
wheat, winter; 250 g ai/ha
  Plant response rating, Wheat, Winter: 20
blackgrass; Preemergence, 31 g ai/ha
  Plant response rating, Blackgrass: 0
blackgrass; Preemergence, 62 g ai/ha
  Plant response rating, Blackgrass: 5
blackgrass; Preemergence, 125 g ai/ha
  Plant response rating, Blackgrass: 20
blackgrass; Preemergence, 250 g ai/ha
  Plant response rating: 75
Field poppy; Preemergence, 31 g ai/ha
  Plant response rating, Field Poppy: 55
Field poppy; Preemergence, 62 g ai/ha
  Plant response rating, Field Poppy: 75
Field poppy; Preemergence, 125 g ai/ha
  Plant response rating, Field Poppy: 80
Field poppy; Preemergence, 250 g ai/ha
  Plant response rating: 100
pigweed; 31 g ai/ha
  Plant response rating, Pigweed: 0
pigweed; 62 g ai/ha
  Plant response rating, Pigweed: 0
pigweed; 125 g ai/ha
  Plant response rating, Pigweed: 0
pigweed; 250 g ai/ha
  Plant response rating, Pigweed: 5
